Results on 29 compounds are retold here after US7501430B2 (ArQule, Inc., priority 2006, dated 2009).

This test concerns the target T1, mutant B-RAF (Homo sapiens, UniProt P15056, V600E).
T1 construct: purchased Upstate (Charlottesville, Va.)
As to the kind of experiment: RAF biochemical assay (MEK-1 phosphorylation, anti-phospho MEK1/2 detection). To be noted: for IC50: read-out: Mutant B-RAF IC50; for inhibition at 10 µM: read-out: Mutant B-RAF % inhibition. In short, it runs like this: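 Detection is by ELISA: after a 30 min room-temperature reaction, plate-captured GST-MEK-1 is probed with anti-phospho MEK1/2, then an AP-tagged secondary antibody with fluorescent Attophos read-out.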

T1 sequence (P15056 whole entry V600E): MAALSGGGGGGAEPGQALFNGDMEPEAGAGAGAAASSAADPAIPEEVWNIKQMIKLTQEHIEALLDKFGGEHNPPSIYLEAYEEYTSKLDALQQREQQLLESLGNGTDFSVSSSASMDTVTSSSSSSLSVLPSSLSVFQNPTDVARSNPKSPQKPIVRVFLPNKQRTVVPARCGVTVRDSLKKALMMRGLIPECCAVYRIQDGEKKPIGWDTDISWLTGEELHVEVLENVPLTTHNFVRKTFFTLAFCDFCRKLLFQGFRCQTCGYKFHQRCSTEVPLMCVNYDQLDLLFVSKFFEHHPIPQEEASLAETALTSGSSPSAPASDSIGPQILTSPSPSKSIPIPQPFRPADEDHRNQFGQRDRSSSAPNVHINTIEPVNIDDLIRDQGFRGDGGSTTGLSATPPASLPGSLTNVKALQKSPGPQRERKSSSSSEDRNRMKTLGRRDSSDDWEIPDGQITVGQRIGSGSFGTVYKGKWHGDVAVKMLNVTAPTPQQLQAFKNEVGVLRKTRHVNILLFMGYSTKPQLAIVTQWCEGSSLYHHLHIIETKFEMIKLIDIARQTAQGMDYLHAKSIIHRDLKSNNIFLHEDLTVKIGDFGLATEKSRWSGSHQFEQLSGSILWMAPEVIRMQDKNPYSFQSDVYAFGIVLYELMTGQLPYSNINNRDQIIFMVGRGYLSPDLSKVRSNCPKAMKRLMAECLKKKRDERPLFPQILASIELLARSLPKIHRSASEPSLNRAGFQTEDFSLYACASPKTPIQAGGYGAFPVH

The IC50 is the point on the concentration scale where inhibition reaches its midpoint. `COc1cccc(S(=O)(=O)N2CCC(Nc3nccc(-c4c(-c5ccc(F)cc5)nc5occn45)n3)CC2)c1` [Example 231, 4-[6-(4-fluorophenyl)imidazo[2,1-b][1,3]oxazol-5-yl]-N-{1-[(3-methoxyphenyl)sulfonyl]piperidin-4-yl}pyrimidin-2-amine]: the IC50 stood at 408 nM.

In general, inhibition refers to the share of the control response that was lost under treatment. As to `CCN(C)C(=O)N1CCC(Nc2nccc(-c3c(-c4ccc(F)cc4)nc4sccn34)n2)CC1` [Example 232, N-ethyl-4-({4-[6-(4-fluorophenyl)imidazo[2,1-b][1,3]thiazol-5-yl]pyrimidin-2-yl}amino)-N-methylpiperidine-1-carboxamide], the inhibition at 10 µM was determined as 56%.

Consider `COc1cccc(-c2nc3sccn3c2-c2ccnc(NC3CCN(C(=O)NCc4ccccc4)CC3)n2)c1` [Example 233, N-benzyl-4-({4-[6-(3-methoxyphenyl)imidazo[2,1-b][1,3]thiazol-5-yl]pyrimidin-2-yl}amino)piperidine-1-carboxamide], for which the inhibition at 10 µM amounted to 53%.

In the case of `COc1cccc(-c2nc3sccn3c2-c2ccnc(NC3CCN(C(=O)NCc4ccco4)CC3)n2)c1` [Example 234, N-(2-furylmethyl)-4-({4-[6-(3-methoxyphenyl)imidazo[2,1-b][1,3]thiazol-5-yl]pyrimidin-2-yl}amino)piperidine-1-carboxamide], the IC50 is 825 nM.

For `Cc1ccccc1S(=O)(=O)N1CCC(Nc2nccc(-c3c(-c4ccc(F)cc4)nc4occn34)n2)CC1` [Example 235, 4-[6-(4-fluorophenyl)imidazo[2,1-b][1,3]oxazol-5-yl]-N-{1-[(2-methylphenyl)sulfonyl]piperidin-4-yl}pyrimidin-2-amine], the inhibition at 10 µM worked out at 30%.

Take `O=S(=O)(c1c(F)cccc1F)N1CCC(Nc2nccc(-c3c(-c4ccc(F)cc4)nc4occn34)n2)CC1` [Example 236, N-{1-[(2,6-difluorophenyl)sulfonyl]piperidin-4-yl}-4-[6-(4-fluorophenyl)imidazo[2,1-b][1,3]oxazol-5-yl]pyrimidin-2-amine]: the inhibition at 10 µM stood at 30%.

Compound `O=S(=O)(c1cccc(F)c1)N1CCC(Nc2nccc(-c3c(-c4ccc(F)cc4)nc4occn34)n2)CC1` [Example 237, 4-[6-(4-fluorophenyl)imidazo[2,1-b][1,3]oxazol-5-yl]-N-{1-[(3-fluorophenyl)sulfonyl]piper-idin-4-yl}pyrimidin-2-amine] had an inhibition at 5 µM (@ 5 uM) of 85%.

Regarding `O=S(=O)(c1ccc(Oc2ccccc2)cc1)N1CCC(Nc2nccc(-c3c(-c4ccc(F)cc4)nc4occn34)n2)CC1` [Example 238, 4-[6-(4-fluorophenyl)imidazo[2,1-b][1,3]oxazol-5-yl]-N-{1-[(4-phenoxyphenyl)sulfonyl]piper-idin-4-yl}pyrimidin-2-amine], the IC50 is over 10000 nM.

The compound `O=S(=O)(c1ccc(C(F)(F)F)cc1)N1CCC(Nc2nccc(-c3c(-c4ccc(F)cc4)nc4occn34)n2)CC1` [Example 239, 4-[6-(4-fluorophenyl)imidazo[2,1-b][1,3]oxazol-5-yl]-N-(1-{[4-(trifluoromethyl)phenyl]sulfonyl}piperidin-4-yl)pyrimidin-2-amine] showed an inhibition at 3 µM of 52%.

With `N#Cc1ccc(S(=O)(=O)N2CCC(Nc3nccc(-c4c(-c5ccc(F)cc5)nc5occn45)n3)CC2)cc1` [Example 240, 4-{[4-({4-[6-(4-fluorophenyl)imidazo[2,1-b][1,3]oxazol-5-yl]pyrimidin-2-yl}amino)piperidin-1-yl]sulfonyl}benzonitrile], the inhibition at 10 µM is 44%.

With `Cc1cn2c(-c3ccnc(NC4CCN(C(=O)NCc5ccccc5)CC4)n3)c(-c3ccc(F)cc3)nc2s1` [Example 241, N-benzyl-4-({4-[6-(4-fluorophenyl)-2-methylimidazo[2,1-b][1,3]thiazol-5-yl]pyrimidin-2-yl}amino)piperidine-1-carboxamide], the IC50 amounted to 2530 nM.

For the compound `Cc1cn2c(-c3ccnc(NC4CCN(C(=O)NCc5ccco5)CC4)n3)c(-c3ccc(F)cc3)nc2s1` [Example 242, 4-({4-[6-(4-fluorophenyl)-2-methylimidazo[2,1-b][1,3]thiazol-5-yl]pyrimidin-2-yl}amino)-N-(2-furylmethyl)piperidine-1-carboxamide], the inhibition at 10 µM amounted to 67%.

As for `O=C(NCc1ccco1)N1CCC(Nc2nccc(-c3c(-c4ccc(F)c(F)c4)nc4sccn34)n2)CC1` [Example 243, 4-({4-[6-(3,4-difluorophenyl)imidazo[2,1-b][1,3]thiazol-5-yl]pyrimidin-2-yl}amino)-N-(2-furylmethyl)piperidine-1-carboxamide], the inhibition at 10 µM came to 76%.

With `c1ccc2cc(-c3nc4sccn4c3-c3ccnc(NC4CCNCC4)n3)ccc2c1` [Example 244, 4-[6-(2-naphthyl)imidazo[2,1-b][1,3]thiazol-5-yl]-N-piperidin-4-ylpyrimidin-2-amine], the inhibition at 10 µM was found to be 47%.

For `COc1cccc(-c2nc3sccn3c2-c2ccnc(NC3CCN(C(=O)Cc4ccc(N(C)C)cc4)CC3)n2)c1` [Example 245, N-(1-{[4-(dimethylamino)phenyl]acetyl}piperidin-4-yl)-4-[6-(3-methoxyphenyl)imidazo[2,1-b][1,3]thiazol-5-yl]pyrimidin-2-amine], the IC50 came out at 2460 nM.

On to `Cc1ccc(-c2nc3scc(C)n3c2-c2ccnc(NC3CCNCC3)n2)cc1` [Example 246, 4-[3-methyl-6-(4-methylphenyl)imidazo[2,1-b][1,3]thiazol-5-yl]-N-piperidin-4-ylpyrimidin-2-amine], for which the IC50 was over 10000 nM.

Where the note is “@ 2 uM”, `O=[N+]([O-])c1ccc(-c2nc3sccn3c2-c2ccnc(NC3CCNCC3)n2)cc1` [Example 247, 4-[6-(4-nitrophenyl)imidazo[2,1-b][1,3]thiazol-5-yl]-N-piperidin-4-ylpyrimidin-2-amine] returned an inhibition at 2 µM of 9%.

`Cc1nc(S(=O)(=O)N2CCC(Nc3nccc(-c4c(-c5ccc(F)cc5)nc5occn45)n3)CC2)cn1C` [Example 248, N-{1-[(1,2-dimethyl-1H-imidazol-4-yl)sulfonyl]piperidin-4-yl}-4-[6-(4-fluorophenyl)imidazo[2,1-b][1,3]oxazol-5-yl]pyrimidin-2-amine]: the IC50 stood at 931 nM.

For the compound `c1cc(-c2c(-c3ccc4c(c3)OCCO4)nc3sccn23)nc(NC2CCNCC2)n1` [Example 249, 4-[6-(2,3-dihydro-1,4-benzodioxin-6-yl)imidazo[2,1-b][1,3]thiazol-5-yl]-N-piperidin-4-ylpyrimidin-2-amine], the inhibition at 10 µM came to 58%.

On to `c1ccc(-c2ccc(-c3nc4sccn4c3-c3ccnc(NC4CCNCC4)n3)cc2)cc1` [Example 250, 4-(6-biphenyl-4-ylimidazo[2,1-b][1,3]thiazol-5-yl)-N-piperidin-4-ylpyrimidin-2-amine], for which the inhibition at 3 µM stood at 2%.

`O=C(NCc1ccccc1)N1CCC(Nc2nccc(-c3c(-c4ccc(F)c(F)c4)nc4sccn34)n2)CC1` [Example 251, N-benzyl-4-({4-[6-(3,4-difluorophenyl)imidazo[2,1-b][1,3]thiazol-5-yl]pyrimidin-2-yl}amino)piperidine-1-carboxamide]: the inhibition at 10 µM is 63%.

As for `Cc1ccc(-c2nc3scc(C)n3c2-c2ccnc(NC3CCN(C(=O)Nc4ccc(N(C)C)cc4)CC3)n2)cc1` [Example 252, N-[4-(dimethylamino)phenyl]-4-({4-[3-methyl-6-(4-methylphenyl)imidazo[2,1-b][1,3]thiazol-5-yl]pyrimidin-2-yl}amino)piperidine-1-carboxamide], the half-maximal inhibitory concentration (IC50) was over 3000 nM.

Consider `CN(C)c1ccc(NC(=O)N2CCC(Nc3nccc(-c4c(-c5ccc([N+](=O)[O-])cc5)nc5sccn45)n3)CC2)cc1` [Example 253, N-[4-(dimethylamino)phenyl]-4-({4-[6-(4-nitrophenyl)imidazo[2,1-b][1,3]thiazol-5-yl]pyrimid-in-2-yl}amino)piperidine-1-carboxamide], for which the IC50 is over 3000 nM.

On to `CN(C)c1ccc(NC(=O)N2CCC(Nc3nccc(-c4c(-c5ccc(-c6ccccc6)cc5)nc5sccn45)n3)CC2)cc1` [Example 254, 4-{[4-(6-biphenyl-4-ylimidazo[2,1-b][1,3]thiazol-5-yl)pyri-midin-2-yl]amino)-N-[4-(di-methylamino)phenyl]piperidine-1-carboxamide], for which the IC50 is over 3000 nM.

With `O=S(=O)(c1ccc(Cl)cc1)N1CCC(Nc2nccc(-c3c(-c4ccc(F)cc4)nc4sccn34)n2)CC1` [Example 255, N-{1-[(4-chlorophenyl)sulfonyl]piperidin-4-yl}-4-[6-(4-fluorophenyl)imidazo[2,1-b][1,3]thiazol-5-yl]pyrimidin-2-amine], the IC50 turned out to be 696 nM.

Turning to `NC(=O)N1CCC(Nc2nccc(-c3c(-c4ccc(F)cc4)nc4occn34)n2)CC1` [Example 256, 4-({4-[6-(4-fluorophenyl)imidazo[2,1-b][1,3]oxazol-5-yl]pyrimidin-2-yl}amino)piperidine-1-carboxamide], the IC50 was over 1000 nM.

For the compound `Cc1cn2c(-c3ccnc(NC4CCN(S(=O)(=O)c5ccc(Cl)cc5)CC4)n3)c(-c3ccc(F)cc3)nc2s1` [Example 257, N-{1-[(4-chlorophenyl)sulfonyl]piperidin-4-yl}-4-[6-(4-fluorophenyl)-2-methylimidazo[2,1-b][1,3]thiazol-5-yl]pyrimidin-2-amine], the IC50 was 73 nM.

Take `Cc1cn2c(-c3ccnc(NC4CCN(S(=O)(=O)c5ccc(C(=O)O)cc5)CC4)n3)c(-c3ccc(F)cc3)nc2s1` [Example 258, 4-{[4-({4-[6-(4-fluorophenyl)-2-methylimidazo[2,1-b][1,3]thiazol-5-yl]pyrimidin-2-yl}amino)piperidin-1-yl]sulfonyl}benzoic acid]: the IC50 amounted to 322 nM.

For the compound `CC(=O)Nc1ccc(-c2nc3sccn3c2-c2ccnc(NC3CCN(S(=O)(=O)c4ccc(Cl)cc4)CC3)n2)cc1` [Example 259, N-(4-{5-[2-({1-[(4-chlorophenyl)sulfonyl]piperidin-4-yl}amino)pyrimidin-4-yl]imidazo[2,1-b][1,3]thiazol-6-yl}phenyl)acetamide], the IC50 was over 3000 nM.
